# Measured values taken from PMC11817610, “Stereoselective Synthesis and Biological Evaluation of Perhydroquinoxaline-Based κ Receptor Agonists” (International Journal of Molecular Sciences, 2025).
# Read-outs that look alike come from different tables or passages of the source.
# Assays:
# [1] = target: κ receptor (Cavia porcellus, UniProt P41144); assay: κ receptor radioligand binding assay with [3H]U-69,593, guinea pig brain membranes
# [2] = target: T1, σ2 receptor (Rattus norvegicus, UniProt Q5U3Y7); assay: biochemical; conditions: read-out: inhibition of the radioligand binding, σ2 Receptor
# T1 construct: The thawed rat liver membrane preparation; tissue Harlan-Winkelmann, Borchen, Germany; host or cells: rat liver membrane homogenate
# T1 sequence (Q5U3Y7 1-176): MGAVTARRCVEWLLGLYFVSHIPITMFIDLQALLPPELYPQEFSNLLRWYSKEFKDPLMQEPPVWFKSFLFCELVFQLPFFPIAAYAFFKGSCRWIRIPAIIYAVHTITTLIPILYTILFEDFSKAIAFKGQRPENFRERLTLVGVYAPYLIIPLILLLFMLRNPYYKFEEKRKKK
# [3] = target: T2, σ1 receptor (Cavia porcellus, UniProt Q60492); assay: σ1 receptor radioligand binding assay with [3H]-(+)-pentazocine, guinea pig brain membranes; conditions: read-out: Ki ± SEM σ1 Receptor
# T2 sequence (Q60492 whole entry): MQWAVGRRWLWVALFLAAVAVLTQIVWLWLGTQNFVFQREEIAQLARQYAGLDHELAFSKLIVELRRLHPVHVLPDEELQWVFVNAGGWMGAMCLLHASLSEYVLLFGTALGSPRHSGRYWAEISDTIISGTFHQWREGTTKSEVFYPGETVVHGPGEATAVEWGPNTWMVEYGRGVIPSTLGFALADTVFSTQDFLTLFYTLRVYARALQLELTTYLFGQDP
# [4] = mouse, microsomes, 1.5 h
# [5] = target: T3, δ receptor (Rattus norvegicus, UniProt P33533); assay: δ receptor radioligand binding assay with [3H]DPDPE, rat brain membranes; conditions: read-out: inhibition of the radioligand binding, δ Receptor
# T3 construct: The thawed rat brain membrane preparation (about 75 μg of the protein) was incubated; tissue Harlan-Winkelmann, Borchen, Germany; host or cells: rat brain membrane homogenate
# T3 sequence (P33533 whole entry): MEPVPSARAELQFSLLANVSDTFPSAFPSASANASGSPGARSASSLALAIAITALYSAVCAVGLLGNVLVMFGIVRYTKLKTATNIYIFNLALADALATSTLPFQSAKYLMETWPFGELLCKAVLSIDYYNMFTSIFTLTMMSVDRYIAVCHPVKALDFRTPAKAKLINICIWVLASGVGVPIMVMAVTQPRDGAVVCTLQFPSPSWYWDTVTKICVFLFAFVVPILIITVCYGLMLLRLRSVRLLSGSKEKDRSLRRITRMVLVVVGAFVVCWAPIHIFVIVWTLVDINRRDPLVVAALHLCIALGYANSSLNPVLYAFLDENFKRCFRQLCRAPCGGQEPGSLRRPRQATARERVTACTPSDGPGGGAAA
# [6] = physchem; conditions: pH 7.4
# [7] = target: human serum albumin (Homo sapiens, UniProt P02768); assay: in vitro; conditions: plasma
# Chain of human serum albumin (P02768 25-609): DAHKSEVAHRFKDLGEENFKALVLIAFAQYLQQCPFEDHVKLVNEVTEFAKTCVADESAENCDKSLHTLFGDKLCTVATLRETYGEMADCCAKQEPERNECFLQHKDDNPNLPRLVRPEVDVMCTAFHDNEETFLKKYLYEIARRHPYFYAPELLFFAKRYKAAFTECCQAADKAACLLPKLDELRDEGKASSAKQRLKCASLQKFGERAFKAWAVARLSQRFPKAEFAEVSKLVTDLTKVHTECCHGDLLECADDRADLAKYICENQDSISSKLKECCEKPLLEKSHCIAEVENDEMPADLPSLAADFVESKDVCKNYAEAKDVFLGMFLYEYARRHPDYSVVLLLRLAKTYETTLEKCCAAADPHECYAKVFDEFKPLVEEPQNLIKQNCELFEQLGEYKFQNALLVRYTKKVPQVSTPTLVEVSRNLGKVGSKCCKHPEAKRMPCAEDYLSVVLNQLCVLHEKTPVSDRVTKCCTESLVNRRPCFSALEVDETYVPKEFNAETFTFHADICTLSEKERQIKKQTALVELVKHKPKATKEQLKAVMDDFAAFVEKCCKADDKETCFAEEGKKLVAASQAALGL
# [8] = target: T4, μ receptor (Cavia porcellus, UniProt A0ACM8Q262); assay: μ receptor radioligand binding assay with [3H]DAMGO, guinea pig brain membranes
# T4 sequence (A0ACM8Q262 1-400): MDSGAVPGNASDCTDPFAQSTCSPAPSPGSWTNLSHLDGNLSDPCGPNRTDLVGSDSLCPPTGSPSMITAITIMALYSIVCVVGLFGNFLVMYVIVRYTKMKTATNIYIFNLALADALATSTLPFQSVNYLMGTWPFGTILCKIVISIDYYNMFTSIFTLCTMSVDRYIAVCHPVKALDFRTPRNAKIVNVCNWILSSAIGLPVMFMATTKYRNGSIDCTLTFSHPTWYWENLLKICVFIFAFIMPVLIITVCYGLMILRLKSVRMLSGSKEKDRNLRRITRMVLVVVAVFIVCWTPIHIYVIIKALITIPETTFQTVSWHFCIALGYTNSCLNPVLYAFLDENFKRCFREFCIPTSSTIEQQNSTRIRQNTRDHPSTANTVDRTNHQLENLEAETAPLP
# [9] = target: T4, μ receptor; set-up: method as in PMID 25062506; conditions: [3H]DAMGO, guinea pig brain membranes; cited from earlier work
# [10] = target: T1, σ2 receptor; conditions: read-out: Ki σ2 Receptor; [3H]DTG, rat liver membranes; cited from earlier work
# [11] = target: T3, δ receptor; set-up: method as in PMID 25062506; conditions: test compound 1 μM, [3H]DPDPE, rat brain membranes; cited from earlier work
# [12] = target: T2, σ1 receptor; conditions: [3H]-(+)-pentazocine, guinea pig brain membranes; cited from earlier work
# Chain of κ receptor (P41144 whole entry): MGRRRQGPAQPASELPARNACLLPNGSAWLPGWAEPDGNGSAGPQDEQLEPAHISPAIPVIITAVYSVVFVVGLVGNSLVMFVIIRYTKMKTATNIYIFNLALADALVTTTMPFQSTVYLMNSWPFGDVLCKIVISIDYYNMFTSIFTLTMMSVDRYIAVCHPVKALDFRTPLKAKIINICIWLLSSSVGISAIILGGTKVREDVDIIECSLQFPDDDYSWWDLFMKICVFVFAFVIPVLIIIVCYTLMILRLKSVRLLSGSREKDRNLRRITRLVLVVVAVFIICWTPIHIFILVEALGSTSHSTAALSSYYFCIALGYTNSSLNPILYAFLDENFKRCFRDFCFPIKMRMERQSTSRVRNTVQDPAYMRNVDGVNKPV
compound,measurement,setting,value
"CC(C)(C)[Si](C)(C)O[C@@H]1C[C@@H]2[C@@H]([C@@H](N3CCCC3)C1)N(C(=O)Cc1ccc(Cl)c(Cl)c1)CCN2Cc1ccccc1 (racemic) [compound 13, 1-[(4aRS,6SR,8SR,8aRS)-4-Benzyl-6-(tert-butyldimethylsilyloxy)-8-(pyrrolidin-1-yl)-decahydroquinoxalin-1-yl]-2-(3,4-dichlorophenyl)ethan-1-one]",inhibition at 1 µM,"[1]; read-out: inhibition of the radioligand binding, κ Receptor",0%
same,inhibition at 1 µM,[2],7%
same,Ki,[3],0.487 µM
"O=C(Cc1ccc(Cl)c(Cl)c1)N1CCN(Cc2ccccc2)[C@@H]2C[C@@H](O)C[C@H](N3CCCC3)[C@H]21 (racemic) [compound 14, 1-[(4aRS,6SR,8SR,8aRS)-4-Benzyl-6-hydroxy-8-(pyrrolidin-1-yl)decahydro-quinoxalin-1-yl]-2-(3,4-dichlorophenyl)ethan-1-one]",compound remaining unchanged (metabolic stability),[4],92 ± 1%
same,"selectivity for κ receptor over μ, δ, σ1 and σ2 receptors",[1],high selectivity
same,Ki,"[1]; [3H]U-69,593, guinea pig brain membranes, with SEM n = 3, without SEM one experiment",0.599 ± 0.217 µM
same,inhibition at 1 µM,[2],0%
same,inhibition at 1 µM,[5],11%
same,logD,[6],1.72 ± 0.05
same,Ki,[3],7.9 µM
same,fraction unbound,[7],0.075
same,inhibition at 1 µM,"[8]; read-out: inhibition of the radioligand binding, μ Receptor",0%
O=C(Cc1ccc(Cl)c(Cl)c1)N1CCN(Cc2ccccc2)C2CCCC(N3CCCC3)C21 (centres unmarked) [2a],Ki,[9],3.9 µM
same,Ki,[10],4.39 µM
same,"inhibition of the radioligand binding, δ Receptor",[11],39%
same,Ki,[12],1.39 µM
[3H]-DAMGO [reference compound],Kd,[8]; guinea pig brain membrane preparation,0.00057 µM
